Measurements from PubChem BioAssay (NCI).
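Tested at 5 concentrations; 48 h exposure; 96-well plates; endpoints linearly interpolated, else capped at highest concentration. GI50 is the concentration that inhibits growth by half. Definition used: TGI = concentration required for complete inhibition of growth.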

Experiments:
Assay in all cases: DTP human tumour cell line panel, 48 h
A498 renal = system: A498 renal
COLO 205 colon = system: COLO 205 colon
K-562 leukemia = system: K-562 leukemia
U251 CNS = system: U251 CNS
IGROV1 ovarian = system: IGROV1 ovarian
NCI-H23 lung = system: NCI-H23 lung
NCI-H460 lung = system: NCI-H460 lung
SNB-75 CNS = system: SNB-75 CNS
NCI-H522 lung = system: NCI-H522 lung
MCF7 breast = system: MCF7 breast

Compound	GI50 (A498 renal) [µM]	TGI (A498 renal) [µM]	GI50 (COLO 205 colon) [µM]	TGI (COLO 205 colon) [µM]	GI50 (K-562 leukemia) [µM]	TGI (K-562 leukemia) [µM]	GI50 (U251 CNS) [µM]	TGI (U251 CNS) [µM]	TGI (IGROV1 ovarian) [µM]	TGI (NCI-H23 lung) [µM]	TGI (NCI-H460 lung) [µM]	TGI (SNB-75 CNS) [µM]	GI50 (IGROV1 ovarian) [µM]	GI50 (NCI-H23 lung) [µM]	GI50 (NCI-H460 lung) [µM]	GI50 (NCI-H522 lung) [µM]	TGI (NCI-H522 lung) [µM]	GI50 (SNB-75 CNS) [µM]	GI50 (MCF7 breast) [µM]	TGI (MCF7 breast) [µM]
O=C1Nc2ccc(Cl)cc2/C1=N/c1nc(-c2ccc(Cl)cc2)cs1	1.8	4.98	1.69	4.18	1.6	> 100	1.7	4.65												
CC(C)(C)c1ccc(OCCOCCOc2ccc(C(C)(C)C)cc2S(N)(=O)=O)c(S(N)(=O)=O)c1		> 100		> 100		> 100		> 100	> 100	> 100	> 100	> 100								
O=C(/C=C(\[O-])c1ccccc1)CCCCCCC(=O)/C=C(\[O-])c1ccccc1.O=C(/C=C(\[O-])c1ccccc1)CCCCCCC(=O)/C=C(\[O-])c1ccccc1.O=C(/C=C(\[O-])c1ccccc1)CCCCCCC(=O)/C=C(\[O-])c1ccccc1.[Y+3].[Y+3]	> 50	> 50	> 50	> 50	17.7	> 50	25.7	> 50	> 50	> 50	> 50	22.2	> 50	13.4	> 50	9.86	37.9	8.98		
CC(=O)O[C@H]1C[C@@H]2[C@@]3(C)CC[C@H]4C[C@@]4(C)[C@@H]3CC[C@@]2(C)C2=CCC3=C(COC3=O)[C@]21C			34	> 100	40.4	> 100	17.4	36.3	78	49.9	> 100	51.2	26.5	20.1	29.9	24.5	84.1	23.1	24	89.8
CCCCC(C(=O)C(=O)Nc1ccccc1CC)C(=O)C(C)C (stereo unspecified)		> 100		> 100		> 100		> 100	> 100	> 100	> 100						> 100			
CN(C)c1ccc(/C=c2/sc3nc(=O)c(-c4ccccc4NC(=O)C(F)(F)F)nn3c2=O)cc1				> 100		> 100		> 100	> 100	> 100	> 100	> 100					> 100			
O=C1c2ccccc2C2(O)N(c3ccccc3)C(=S)N(c3ccccc3)C12O (stereo unspecified)		> 100		> 100		> 100		> 100	> 100	> 100	> 100	> 100					> 100			
ON1CCc2c([nH]c3ccccc23)C1c1ccc(Cl)cc1 (stereo unspecified)		> 100		80.8		> 100		29.8		86.9		> 100					60			
FC(F)(F)c1cccc(CNC2CCN(CCc3ccccc3)CC2)c1			16.9	34.3	15.5	42.9	15.6	35.6	> 100	> 100	39.6	33.6	55.9	51.8	19.1	20.9	44.4	11.7	16	34.6
C/C(=C\c1ccccc1)C(O)C(=O)c1nc2ccc(Cl)cc2[nH]c1=O (stereo unspecified)		> 100		> 100		> 100		> 100	> 100	> 100	> 100						> 100			
CCOC(=O)C1C(NC(N)=O)N(Cc2ccccc2)C(=O)N1Cc1ccccc1 (stereo unspecified)				> 100		> 100		32	> 100		> 100	> 100					> 100			
CCCCCNC(=O)CCCCCCCCCCCNC(=O)CCCCCCCCCCN1C=CC(=CC=C2C=CC(=O)C=C2)C=C1		> 100		28.6		> 100		> 100	> 100	> 100	> 100	68.3					> 100			
O=[N+]([O-])c1ccc(/C=C/c2ccc(/C=C/c3ccc([N+](=O)[O-])cc3[N+](=O)[O-])cc2)c([N+](=O)[O-])c1		> 100				> 100		> 100	> 100	> 100	> 100	> 100								
COc1cc2c(cc1C)NC(=O)/C2=C\c1ccc(Oc2ccccc2)cc1	13.9	26.8	20.7	36.9			12.8	25.4	36.9	32.2		37.4	15.7	15.6		12.4	42	21		
Cc1ccccc1NC(=O)C1C(=O)N(c2ccccc2C)C(=O)/C1=N\NC(N)=O (stereo unspecified)		> 100		> 100		> 100		> 100	> 100	> 100	> 100	83.7					> 100			
